Results taken from ChEMBL document CHEMBL4834415, “Distinct Lugdunins from a New Efficient Synthesis and Broad Exploitation of Its MRSA-Antimicrobial Structure” (2021).
≈ marks a conversion by molar mass, not a printed value.

system: Staphylococcus aureus; assay: Antibacterial activity against methicillin-resistant Staphylococcus aureus USA300 LAC assessed as reduction in bacterial growth incubated for 21 hrs by broth dilution method; assay type: functional

SMILES | MIC [µM]
C#CC[C@H]1NC(=O)[C@H](Cc2c[nH]c3ccccc23)NC(=O)[C@@H](C(C)C)NC(=O)[C@@H]2CSC(N2)[C@H](C(C)C)NC(=O)[C@@H](Cc2c[nH]c3ccccc23)NC(=O)[C@H](C(C)C)NC1=O | 58.8 (≈ 50.1 µg/mL)
CC[C@H](C)[C@H]1NC(=O)[C@@H]2CSC(N2)[C@H](C(C)C)NC(=O)[C@@H](Cc2c[nH]c3ccccc23)NC(=O)[C@H](C(C)C)NC(=O)[C@@H](CC(C)C)NC(=O)[C@H](Cc2c3ccccc3cc3ccccc23)NC1=O | 106 (≈ 100 µg/mL)
C=CC[C@H]1NC(=O)[C@H](Cc2c[nH]c3ccccc23)NC(=O)[C@@H](C(C)C)NC(=O)[C@@H]2CSC(N2)[C@H](C(C)C)NC(=O)[C@@H](Cc2c[nH]c3ccccc23)NC(=O)[C@H](C(C)C)NC1=O | 58.6 (≈ 50 µg/mL)
CCC[C@H]1NC(=O)[C@H](Cc2c[nH]c3ccccc23)NC(=O)[C@@H](C(C)C)NC(=O)[C@@H]2CSC(N2)[C@H](C(C)C)NC(=O)[C@@H](Cc2c[nH]c3ccccc23)NC(=O)[C@H](C(C)C)NC1=O | 14.6 (≈ 12.5 µg/mL)
CC[C@@H](C)[C@H]1NC(=O)[C@H](Cc2c[nH]c3ccccc23)NC(=O)[C@@H](C(C)C)NC(=O)[C@@H]2CSC(N2)[C@H](C(C)C)NC(=O)[C@@H](C(C)C)NC(=O)[C@H](C(C)C)NC1=O | 14.4 (≈ 11.3 µg/mL)
C=CC[C@H]1NC(=O)[C@@H]2CSC(N2)[C@H](C(C)C)NC(=O)[C@@H](Cc2c[nH]c3ccccc23)NC(=O)[C@H](C(C)C)NC(=O)[C@@H](CC(C)C)NC(=O)[C@H](Cc2c[nH]c3ccccc23)NC1=O | 14.4 (≈ 12.5 µg/mL)
CC(C)[C@@H]1NC(=O)[C@@H](Cc2c[nH]c3ccccc23)NC(=O)[C@H](C(C)C)NC(=O)[C@@H](Cc2c[nH]c3ccccc23)NC(=O)[C@H](Cc2c[nH]c3ccccc23)NC(=O)[C@@H](C(C)C)NC(=O)[C@@H]2CSC1N2 | 106 (≈ 100 µg/mL)
CC(C)[C@@H]1NC(=O)[C@@H](Cc2c[nH]c3ccccc23)NC(=O)[C@H](C(C)C)NC(=O)[C@@H](C(C)(C)C)NC(=O)[C@H](Cc2c[nH]c3ccccc23)NC(=O)[C@@H](C(C)C)NC(=O)[C@@H]2CSC1N2 | 28.8 (≈ 25.1 µg/mL)
CC(C)C[C@H]1NC(=O)[C@@H]2CSC(N2)[C@H](C(C)C)NC(=O)[C@@H](Cc2c[nH]c3ccccc23)NC(=O)[C@H](C(C)C)NC(=O)[C@@H](CC(C)C)NC(=O)[C@H](Cc2c[nH]c3ccccc23)NC1=O | 113 (≈ 99.9 µg/mL)
CSCC[C@H]1NC(=O)[C@H](Cc2c[nH]c3ccccc23)NC(=O)[C@@H](C(C)C)NC(=O)[C@@H]2CSC(N2)[C@H](C(C)C)NC(=O)[C@@H](Cc2c[nH]c3ccccc23)NC(=O)[C@H](C(C)C)NC1=O | 113 (≈ 100 µg/mL)
CC(C)C[C@@H]1NC(=O)[C@@H](C(C)C)NC(=O)[C@H](C(C)C)NC(=O)[C@@H](C(C)C)NC(=O)[C@@H]2CSC(N2)[C@H](C(C)C)NC(=O)[C@@H](Cc2c[nH]c3ccccc23)NC1=O | 8 (≈ 6.26 µg/mL)
CSCC[C@H]1NC(=O)[C@@H]2CSC(N2)[C@H](C(C)C)NC(=O)[C@@H](Cc2c[nH]c3ccccc23)NC(=O)[C@H](C(C)C)NC(=O)[C@@H](CC(C)C)NC(=O)[C@H](Cc2c[nH]c3ccccc23)NC1=O | 111 (≈ 100 µg/mL)
CCC[C@H]1NC(=O)[C@@H]2CSC(N2)[C@H](C(C)C)NC(=O)[C@@H](Cc2c[nH]c3ccccc23)NC(=O)[C@H](C(C)C)NC(=O)[C@@H](CC(C)C)NC(=O)[C@H](Cc2c[nH]c3ccccc23)NC1=O | 7.2 (≈ 6.26 µg/mL)
CC(C)[C@@H]1NC(=O)[C@@H](Cc2c[nH]c3ccccc23)NC(=O)[C@H](C(C)C)NC(=O)[C@@H](Cc2ccccc2)NC(=O)[C@H](Cc2c[nH]c3ccccc23)NC(=O)[C@@H](C(C)C)NC(=O)[C@@H]2CSC1N2 | 111 (≈ 100 µg/mL)
CC[C@H](C)[C@H]1NC(=O)[C@H](Cc2c[nH]c3ccccc23)NC(=O)[C@@H](C(C)C)NC(=O)[C@@H]2CSC(N2)[C@H](C(C)C)NC(=O)[C@@H](C(C)C)NC(=O)[C@H](C(C)C)NC1=O | 31.9 (≈ 25 µg/mL)
CC(C)[C@@H]1NC(=O)[C@@H](Cc2c[nH]c3ccccc23)NC(=O)[C@H](C(C)C)NC(=O)[C@H]2CCCN2C(=O)[C@H](Cc2c[nH]c3ccccc23)NC(=O)[C@@H](C(C)C)NC(=O)[C@@H]2CSC1N2 | 117 (≈ 100 µg/mL)
CC(C)[C@@H]1NC(=O)[C@@H](Cc2c[nH]c3ccccc23)NC(=O)[C@H](C(C)C)NC(=O)C2(CC2)NC(=O)[C@H](Cc2c[nH]c3ccccc23)NC(=O)[C@@H](C(C)C)NC(=O)[C@@H]2CSC1N2 | 119 (≈ 100 µg/mL)
C#CC[C@H]1NC(=O)[C@@H]2CSC(N2)[C@H](C(C)C)NC(=O)[C@@H](Cc2c[nH]c3ccccc23)NC(=O)[C@H](C(C)C)NC(=O)[C@@H](CC(C)C)NC(=O)[C@H](Cc2c[nH]c3ccccc23)NC1=O | 3.9 (≈ 3.38 µg/mL)
